Test results reported in patent publication US11149018B2, “Substituted N-arylethyl-2-aminoquinoline-4-carboxamides and use thereof” (Bayer Aktiengesellschaft, priority 2017, dated 2021).
pIC50: −log10 of the molar value.

Molecular target: FP receptor (Homo sapiens (Human), UniProt P43088)
Experiment: In vitro test of inhibition of human FP receptor activity (PGF2α-induced calcium flux in FP-expressing CHEM1 cells)
Type: cell-based
Settings: PGF2α 2 nM, some mean values of multiple determinations
Outline: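 FP antagonism in FP-expressing CHEM1 cells loaded with Fluo-8. Compound preincubated 10 min at 37° C, then receptor stimulated with 2 nM (final) PGF2α in calcium-free Tyrode with 2 mM CaCl2.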

Sequence of FP receptor (P43088 whole entry): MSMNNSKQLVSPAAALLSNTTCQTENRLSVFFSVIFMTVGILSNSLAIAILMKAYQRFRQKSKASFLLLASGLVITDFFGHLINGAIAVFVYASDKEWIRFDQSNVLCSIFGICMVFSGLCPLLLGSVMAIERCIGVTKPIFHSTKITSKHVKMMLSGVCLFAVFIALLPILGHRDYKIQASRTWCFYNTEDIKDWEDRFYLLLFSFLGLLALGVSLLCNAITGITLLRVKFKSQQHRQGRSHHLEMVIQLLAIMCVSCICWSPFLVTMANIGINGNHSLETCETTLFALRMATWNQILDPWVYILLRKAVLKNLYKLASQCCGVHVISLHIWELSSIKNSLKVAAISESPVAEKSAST

Row | SMILES | pIC50
1 | Cc1c(N2CCCC(F)C2)nc2ccc(Br)cc2c1C(=O)NCC(CCC(=O)O)c1cc(F)ccc1F (centres unmarked) [Example 264, 5-[({6-Bromo-2-(3-fluoropiperidin-1-yl)-3-methylquinolin-4-yl}carbonyl)amino]-4-(2,5-difluorophenyl)pentanoic acid] | 7.52
2 | Cc1c(N2CC=CCC2)nc2ccc(Br)cc2c1C(=O)NCC(CCC(=O)O)c1ccccc1Cl (racemic) [Example 29, (+/−)-5-({[6-Bromo-2-(3,6-dihydropyridin-1(2H)-yl)-3-methylquinolin-4-yl]carbonyl}amino)-4-(2-chlorophenyl)pentanoic acid] | 7.66
3 | Cc1c(N2CCCCC2)nc2ccc(Br)cc2c1C(=O)NCC(CC(=O)O)c1c(F)cccc1Cl (single isomer, unassigned; (-)) [Example 2, (−)-4-({[6-Bromo-3-methyl-2-(piperidin-1-yl)quinolin-4-yl]carbonyl}amino)-3-(2-chloro-6-fluorophenyl)butanoic acid] | 7.64
4 | Cc1c(N2CCC(O)C2)nc2ccc(Br)cc2c1C(=O)NCC(CCC(=O)O)c1cc(F)ccc1Cl (centres unmarked) [Example 16, 5-[({6-Bromo-2-[3-hydroxypyrrolidin-1-yl]-3-methylquinolin-4-yl}carbonyl)amino]-4-(2-chloro-5-fluorophenyl)pentanoic acid] | 6.54
5 | [2H]C1([2H])N(c2nc3ccc(Br)cc3c(C(=O)NCC(CCC(=O)O)c3ccccc3C(F)(F)F)c2C)C([2H])([2H])C([2H])([2H])C([2H])([2H])C1([2H])[2H] (single isomer, unassigned; (-)) [Example 269, (−)-5-[({6-Bromo-3-methyl-2-[(^2H10)piperidin-1-yl]quinolin-4-yl}carbonyl)amino]-4-[2-(trifluoromethyl)phenyl]pentanoic acid] | 8.55
6 | Cc1c(N2CCCO2)nc2ccc(Br)cc2c1C(=O)NCC(CCC(=O)O)c1ccccc1Cl (racemic) [Example 38, (+/−)-5-({[6-Bromo-3-methyl-2-(1,2-oxazolidin-2-yl)quinolin-4-yl]carbonyl}amino)-4-(2-chlorophenyl)pentanoic acid] | 6.96
7 | Cc1c(N2CCC[C@@H]2C)nc2ccc(Br)cc2c1C(=O)NCC(CCC(=O)O)c1ccccc1Cl (single isomer, unassigned; (-)) [Example 81] | 6.74
8 | CCC1CCCN(c2nc3ccc(Br)cc3c(C(=O)NCC(CCC(=O)O)c3cc(F)ccc3F)c2C)C1 (single isomer, unassigned; (+)) [Example 228, (+)-5-[({6-Bromo-2-[3-ethylpiperidin-1-yl]-3-methylquinolin-4-yl}carbonyl)amino]-4-(2,5-difluorophenyl)pentanoic acid] | 8.96
9 | Cc1c(N2CCCCCC2)nc2ccc(Br)cc2c1C(=O)NCC(CCC(=O)O)c1ccccc1OC(F)(F)F (racemic) [Example 135, (+/−)-5-({[2-(Azepan-1-yl)-6-bromo-3-methylquinolin-4-yl]carbonyl}amino)-4-[2-(trifluoromethoxy)phenyl]pentanoic acid] | 8.52
10 | Cc1c(N2CCCC2)nc2ccc(Br)cc2c1C(=O)NCC(CCC(=O)O)c1c(F)ccc(F)c1Cl (racemic) [Example 154, (+/−)-5-({[6-Bromo-3-methyl-2-(pyrrolidin-1-yl)quinolin-4-yl]carbonyl}amino)-4-(2-chloro-3,6-difluorophenyl)pentanoic acid] | 8.47

Results, then the compound that gave them:

Row | pIC50 | SMILES
11 | 8.40 | Cc1c(N2CCCC(F)C2)nc2ccc(Br)cc2c1C(=O)NCC(CCC(=O)O)c1ccccc1Cl (single isomer, unassigned; (-)) [Example 185, (−)-5-[({6-Bromo-2-[3-fluoropiperidin-1-yl]-3-methylquinolin-4-yl}carbonyl)amino]-4-(2-chlorophenyl)pentanoic acid]
12 | 7.92 | Cc1c(N2CC[C@@H](F)C2)nc2ccc(Br)cc2c1C(=O)NCC(CCC(=O)O)c1ccccc1Cl (stereo partly drawn) [Example 66, 5-[({6-Bromo-2-[(3R)-3-fluoropyrrolidin-1-yl]-3-methylquinolin-4-yl}carbonyl)amino]-4-(2-chlorophenyl)pentanoic acid]
13 | 7.55 | Cc1c(N2CCCC(F)(F)C2)nc2ccc(Br)cc2c1C(=O)NCC(CCC(=O)O)c1cc(F)ccc1F (racemic) [Example 261, (+/−)-5-({[6-Bromo-2-(3,3-difluoropiperidin-1-yl)-3-methylquinolin-4-yl]carbonyl}amino)-4-(2,5-difluorophenyl)pentanoic acid]
14 | 8.64 | Cc1c(N2CCCC(C)C2)nc2ccc(Br)cc2c1C(=O)NCC(CCC(=O)O)c1ccccc1OC(F)(F)F (centres unmarked) [Example 140, 5-[({6-Bromo-3-methyl-2-[3-methylpiperidin-1-yl]quinolin-4-yl}carbonyl)amino]-4-[2-(trifluoromethoxy)phenyl]pentanoic acid]
15 | 8.42 | Cc1c(N2CCCCC2)nc2ccc(Br)cc2c1C(=O)NCC(CCC(=O)O)c1ccccc1OC(F)(F)F (single isomer, unassigned; (+)) [Example 128, (+)-5-({[6-Bromo-3-methyl-2-(piperidin-1-yl)quinolin-4-yl]carbonyl}amino)-4-[2-(trifluoromethoxy)phenyl]pentanoic acid]
16 | 8.21 | Cc1c(N2CCCC2)nc2ccc(Br)cc2c1C(=O)NCC(CCC(=O)O)c1ccccc1OC(F)(F)F (racemic) [Example 129, (+/−)-5-({[6-Bromo-3-methyl-2-(pyrrolidin-1-yl)quinolin-4-yl]carbonyl}amino)-4-[2-(trifluoromethoxy)phenyl]pentanoic acid]
17 | 8.10 | Cc1ccc(F)cc1C(CCC(=O)O)CNC(=O)c1c(C)c(N2CCCCC2)nc2ccc(Br)cc12 (racemic) [Example 147, (+/−)-5-({[6-Bromo-3-methyl-2-(piperidin-1-yl)quinolin-4-yl]carbonyl}amino)-4-(5-fluoro-2-methylphenyl)pentanoic acid]
18 | 7.89 | Cc1ccccc1C(CCC(=O)O)CNC(=O)c1c(C)c(N2CCCC(F)(F)C2)nc2ccc(Br)cc12 (racemic) [Example 229, (+/−)-5-({[6-Bromo-2-(3,3-difluoropiperidin-1-yl)-3-methylquinolin-4-yl]carbonyl}amino)-4-(2-methylphenyl)pentanoic acid]
19 | 9.10 | Cc1c(N2CCCCC2)nc2ccc(Br)cc2c1C(=O)NCC(CCC(=O)O)c1ccccc1OC(F)(F)F (single isomer, unassigned; (-)) [Example 127, (−)-5-({[6-Bromo-3-methyl-2-(piperidin-1-yl)quinolin-4-yl]carbonyl}amino)-4-[2-(trifluoromethoxy)phenyl]pentanoic acid]

Test system: C57Bl6J mice with DQ12 silica-induced pulmonary fibrosis
Experiment: Silica-induced pulmonary fibrosis in mice, therapeutic chronic 30-day study
Type: in vivo, mouse
Settings: 10 and 30 mg/kg po bid, versus silica-treated control
Description: B-23. Silica-Induced Pulmonary Fibrosis in Mice: Therapeutic Chronic 30-Day Study with FP Antagonists
Adult female C57Bl6J mice (Charles River Laboratories, Sulzfeld, Germany) having a weight of 18-20 g were anaesthetized in a chamber with isoflurane (3% v/v) and treated intratracheally with 2.5 mg of crystalline DQ12 silica dissolved in 70 μL of sterile phosphate-buffered saline. Untreated control mice received the same volume of phosphate-buffered saline. […] 30 days after the installation of silica, the animals were anaesthetized with an intraperitoneal injection of ketamine/medetomidine (50 mg/kg and 0.33 mg/kg) combined with a subcutaneous injection of Temgesic (0.06 mg/kg) and sacrifice by exsanguination. Thereafter, the trachea was cannulated, and the animals' lungs were lavaged three times with 0.5 ml of ice-cold phosphate-buffered saline. Thereafter, the lungs were removed, weighed and shock-frozen in dry ice. […] The data are mean values±SEM of 8-12 animals per group. The statistical analysis was conducted with the unpaired Student's t test. P values<0.05 were considered to be significant.

Row | SMILES | Hydroxyproline formation and fibrosis (result in words)
20 | Cc1c(N2CCCC2)nc2ccc(Br)cc2c1C(=O)NCC(CCC(=O)O)c1ccccc1Cl (single isomer, unassigned; (+)) [Example 35, (+)-5-({[6-bromo-3-methyl-2-(pyrrolidin-1-yl)quinolin-4-yl]carbonyl}amino)-4-(2-chlorophenyl)pentanoic acid] | significant reduction in the hydroxyproline formation and fibrosis
